From paper PMC10810264 (Microchemical journal : devoted to the application of …, 2023)
Values after ≈ are worked out from the molar mass of the structure shown.

Assays:
[1] = test system: anti-GEN scFv-AP fusion protein; assay: direct competitive chemiluminescent enzyme immunoassay; type: binding, murine; details: dcCLEIA; CR=[IC50(gentamicin)/IC50(analyte)]×100%
[2] = test system: anti-GEN scFv-AP fusion protein; assay: direct competitive ELISA; type: binding, murine; details: dcELISA, AP substrate p-nitrophenyl phosphate, OD 405 nm

Row | Compound | Cross-reactivity [1] [%] | IC50 [2] [ng/mL]
1 | CNC(C)C1CCC(N)C(OC2C(N)CC(N)C(OC3OCC(C)(O)C(NC)C3O)C2O)O1 (stereo not shown) [Gentamicin] | 100 | 7.693 (≈ 0.0161 µM)
2 | Neomycin | <0.10 | –
3 | [H]/N=C(/N)N[C@H]1[C@H](O)[C@@H](O)[C@H](O[C@@H]2O[C@@H](C)[C@](O)(C=O)[C@H]2O[C@@H]2O[C@@H](CO)[C@H](O)[C@@H](O)[C@@H]2NC)[C@@H](N/C(N)=N\[H])[C@@H]1O [Streptomycin] | <0.10 | –
4 | O=C(N[C@H](CO)[C@H](O)c1ccc([N+](=O)[O-])cc1)C(Cl)Cl [Chloramphenicol] | <0.10 | –
5 | NC[C@H]1O[C@H](O[C@H]2[C@H](O)[C@@H](O[C@H]3O[C@H](CO)[C@@H](O)[C@H](N)[C@H]3O)[C@H](N)C[C@@H]2N)[C@H](O)[C@@H](O)[C@@H]1O [kanamycin] | <0.10 | –
6 | CC1(C)S[C@@H]2[C@H](NC(=O)[C@H](N)c3ccccc3)C(=O)N2[C@H]1C(=O)O [Ampicillin] | <0.10 | –
